Test results as given in the supplement of paper PMC8671470.

These molecules were tested on THP-1 (assay: cell viability (% survival relative to DMSO control, bortezomib = 0%); higher = less cytotoxic). Settings: 100 nM; 72 h.
Outline: (§1)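 After 72 h at 37 °C with 5% CO2, cell viability in 384-well plates was measured by CellTiter-Glo luminescence. The plates held compounds pre-printed at 1, 10, 100, 1000 or 10000 nM in duplicate, and cells from 10 AML and 5 CML lines seeded at densities titrated to linear growth. Percent survival is the duplicate mean, normalised to vehicle as 100% and a 10 µM positive control as 0%.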

SMILES	cell viability
NS(=O)(=O)c1ccc(S(=O)(=O)Nc2cccc3c(Cl)c[nH]c23)cc1 [Indisulam]	112%
COc1ccc2c(c1)c(CC(=O)O)c(C)n2C(=O)c1ccc(Cl)cc1 [Indomethacine]	105%
Cn1cc(C[C@@H](N)C(=O)O)c2ccccc21 [Indoximod]	102%

Same assay, conditions: 1000 nM; 72 h

SMILES	cell viability
OC[C@H]1N[C@@H](c2c[nH]c3c(O)ncnc23)[C@H](O)[C@@H]1O [Forodesine]	83.1%
O=c1oc2c(cc1O)oc(=O)c1cc(O)c(O)c(O)c12 [Galloflavin]	99.4%
Nc1ccn([C@@H]2O[C@H](CO)[C@@H](O)C2(F)F)c(=O)n1 [Gemcitabine]	23.5%
N[C@@H](CCC(=O)N[C@@H](CS)C(=O)NCC(=O)O)C(=O)O [Glutathione]	105%
Clc1cc(Cl)c(OCC#CI)cc1Cl [Haloprogin]	74%
O=c1[nH]c(=O)n([C@H]2C[C@H](O)[C@@H](CO)O2)cc1I [Idoxuridine]	104%
CC1Cc2ccccc2N1NC(=O)c1ccc(Cl)c(S(N)(=O)=O)c1 (centres undefined) [Indapamide]	95.4%
NS(=O)(=O)c1ccc(S(=O)(=O)Nc2cccc3c(Cl)c[nH]c23)cc1 [Indisulam]	94.3%
COc1ccc2c(c1)c(CC(=O)O)c(C)n2C(=O)c1ccc(Cl)cc1 [Indomethacine]	110%
Cn1cc(C[C@@H](N)C(=O)O)c2ccccc21 [Indoximod]	94.8%

Same assay, conditions: 10000 nM; 72 h

SMILES	cell viability
OC[C@H]1N[C@@H](c2c[nH]c3c(O)ncnc23)[C@H](O)[C@@H]1O [Forodesine]	74.3%
O=c1oc2c(cc1O)oc(=O)c1cc(O)c(O)c(O)c12 [Galloflavin]	108%
Nc1ccn([C@@H]2O[C@H](CO)[C@@H](O)C2(F)F)c(=O)n1 [Gemcitabine]	20.4%
N[C@@H](CCC(=O)N[C@@H](CS)C(=O)NCC(=O)O)C(=O)O [Glutathione]	105%
Clc1cc(Cl)c(OCC#CI)cc1Cl [Haloprogin]	0.288%
O=c1[nH]c(=O)n([C@H]2C[C@H](O)[C@@H](CO)O2)cc1I [Idoxuridine]	90%
CC1Cc2ccccc2N1NC(=O)c1ccc(Cl)c(S(N)(=O)=O)c1 (centres undefined) [Indapamide]	97%
NS(=O)(=O)c1ccc(S(=O)(=O)Nc2cccc3c(Cl)c[nH]c23)cc1 [Indisulam]	71.1%
COc1ccc2c(c1)c(CC(=O)O)c(C)n2C(=O)c1ccc(Cl)cc1 [Indomethacine]	97.8%
Cn1cc(C[C@@H](N)C(=O)O)c2ccccc21 [Indoximod]	98.4%

These molecules were tested on KCL-22 in the same assay as above. Settings: 1 nM; 72 h.
Outline: as §1

SMILES	cell viability
OC[C@H]1N[C@@H](c2c[nH]c3c(O)ncnc23)[C@H](O)[C@@H]1O [Forodesine]	102%
O=c1oc2c(cc1O)oc(=O)c1cc(O)c(O)c(O)c12 [Galloflavin]	103%
Nc1ccn([C@@H]2O[C@H](CO)[C@@H](O)C2(F)F)c(=O)n1 [Gemcitabine]	104%
N[C@@H](CCC(=O)N[C@@H](CS)C(=O)NCC(=O)O)C(=O)O [Glutathione]	101%
Clc1cc(Cl)c(OCC#CI)cc1Cl [Haloprogin]	95.9%
O=c1[nH]c(=O)n([C@H]2C[C@H](O)[C@@H](CO)O2)cc1I [Idoxuridine]	103%
CC1Cc2ccccc2N1NC(=O)c1ccc(Cl)c(S(N)(=O)=O)c1 (centres undefined) [Indapamide]	89.3%
NS(=O)(=O)c1ccc(S(=O)(=O)Nc2cccc3c(Cl)c[nH]c23)cc1 [Indisulam]	102%
COc1ccc2c(c1)c(CC(=O)O)c(C)n2C(=O)c1ccc(Cl)cc1 [Indomethacine]	113%
Cn1cc(C[C@@H](N)C(=O)O)c2ccccc21 [Indoximod]	109%

Same assay, conditions: 10 nM; 72 h

SMILES	cell viability
OC[C@H]1N[C@@H](c2c[nH]c3c(O)ncnc23)[C@H](O)[C@@H]1O [Forodesine]	91.8%
O=c1oc2c(cc1O)oc(=O)c1cc(O)c(O)c(O)c12 [Galloflavin]	95.3%
Nc1ccn([C@@H]2O[C@H](CO)[C@@H](O)C2(F)F)c(=O)n1 [Gemcitabine]	37.7%
N[C@@H](CCC(=O)N[C@@H](CS)C(=O)NCC(=O)O)C(=O)O [Glutathione]	110%
Clc1cc(Cl)c(OCC#CI)cc1Cl [Haloprogin]	97.1%
O=c1[nH]c(=O)n([C@H]2C[C@H](O)[C@@H](CO)O2)cc1I [Idoxuridine]	96.7%
CC1Cc2ccccc2N1NC(=O)c1ccc(Cl)c(S(N)(=O)=O)c1 (centres undefined) [Indapamide]	105%
NS(=O)(=O)c1ccc(S(=O)(=O)Nc2cccc3c(Cl)c[nH]c23)cc1 [Indisulam]	104%
COc1ccc2c(c1)c(CC(=O)O)c(C)n2C(=O)c1ccc(Cl)cc1 [Indomethacine]	84%
Cn1cc(C[C@@H](N)C(=O)O)c2ccccc21 [Indoximod]	86.8%

Same assay, conditions: 100 nM; 72 h

SMILES	cell viability
OC[C@H]1N[C@@H](c2c[nH]c3c(O)ncnc23)[C@H](O)[C@@H]1O [Forodesine]	100%
O=c1oc2c(cc1O)oc(=O)c1cc(O)c(O)c(O)c12 [Galloflavin]	102%
Nc1ccn([C@@H]2O[C@H](CO)[C@@H](O)C2(F)F)c(=O)n1 [Gemcitabine]	9.55%
N[C@@H](CCC(=O)N[C@@H](CS)C(=O)NCC(=O)O)C(=O)O [Glutathione]	91.4%
Clc1cc(Cl)c(OCC#CI)cc1Cl [Haloprogin]	104%
O=c1[nH]c(=O)n([C@H]2C[C@H](O)[C@@H](CO)O2)cc1I [Idoxuridine]	101%
CC1Cc2ccccc2N1NC(=O)c1ccc(Cl)c(S(N)(=O)=O)c1 (centres undefined) [Indapamide]	77.6%
NS(=O)(=O)c1ccc(S(=O)(=O)Nc2cccc3c(Cl)c[nH]c23)cc1 [Indisulam]	87.4%
COc1ccc2c(c1)c(CC(=O)O)c(C)n2C(=O)c1ccc(Cl)cc1 [Indomethacine]	96%
Cn1cc(C[C@@H](N)C(=O)O)c2ccccc21 [Indoximod]	82.5%

Same assay, conditions: 1000 nM; 72 h

SMILES	cell viability
OC[C@H]1N[C@@H](c2c[nH]c3c(O)ncnc23)[C@H](O)[C@@H]1O [Forodesine]	99.2%
O=c1oc2c(cc1O)oc(=O)c1cc(O)c(O)c(O)c12 [Galloflavin]	104%
Nc1ccn([C@@H]2O[C@H](CO)[C@@H](O)C2(F)F)c(=O)n1 [Gemcitabine]	8.82%
N[C@@H](CCC(=O)N[C@@H](CS)C(=O)NCC(=O)O)C(=O)O [Glutathione]	95.6%
Clc1cc(Cl)c(OCC#CI)cc1Cl [Haloprogin]	73.9%
O=c1[nH]c(=O)n([C@H]2C[C@H](O)[C@@H](CO)O2)cc1I [Idoxuridine]	48.9%
